ChEMBL document CHEMBL1201862, “PubChem BioAssay data set” (2004)
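A five-concentration, 48-hour dose response in 96-well plates underlies each endpoint, interpolated linearly between surrounding concentrations. GI50 = concentration required for 50% inhibition of growth.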 Active and inactive are the calls of the source. Rule as the data show it: active = GI50 up to about 1.1 µM and inactive = higher.

Legend:
Test in all cases: NCI-60 cell line screen, 48 h
ACHN = tested on: ACHN
CCRF-CEM = tested on: CCRF-CEM
EKVX = tested on: EKVX
HCT-116 = tested on: HCT-116
Hs-578T = tested on: Hs-578T
K562 = tested on: K562
LOX IMVI = tested on: LOX IMVI
MCF7 = tested on: MCF7
MDA-N = tested on: MDA-N
MOLT-4 = tested on: MOLT-4
NCI/ADR-RES = tested on: NCI/ADR-RES
OVCAR-5 = tested on: OVCAR-5
SK-MEL-2 = tested on: SK-MEL-2
SW-620 = tested on: SW-620
U-251 = tested on: U-251
SNB-75 = tested on: SNB-75
SN12C = tested on: SN12C
NCI-H226 = tested on: NCI-H226

SMILES	GI50 (ACHN)	GI50 (CCRF-CEM)	GI50 (EKVX)	GI50 (HCT-116)	GI50 (Hs-578T)	GI50 (K562)	GI50 (LOX IMVI)	GI50 (MCF7)	GI50 (MDA-N)	GI50 (MOLT-4)	GI50 (NCI/ADR-RES)	GI50 (OVCAR-5)	GI50 (SK-MEL-2)	GI50 (SW-620)	GI50 (U-251)	GI50 (SNB-75)	GI50 (SN12C)	GI50 (NCI-H226)
Cc1cc(C)nc(NS(=O)(=O)c2ccc(Nc3nncc(=O)n3N)cc2)n1	33.7 µM (inactive)	3.62 µM (inactive)	23.1 µM (inactive)	28.2 µM (inactive)	29.6 µM (inactive)	11.1 µM (inactive)	14.2 µM (inactive)	16.7 µM (inactive)	16 µM (inactive)	15.5 µM (inactive)	23.6 µM (inactive)	18.2 µM (inactive)	59 µM (inactive)	16.2 µM (inactive)	17.7 µM (inactive)	–	–	–
O=C1c2c(ccc3c2CCCC3)CC12Cc1ccc3c(c1C2=O)CCCC3	> 100 µM (inactive)	> 100 µM (inactive)	> 100 µM (inactive)	77.4 µM (inactive)	> 100 µM (inactive)	> 100 µM (inactive)	> 100 µM (inactive)	> 100 µM (inactive)	> 100 µM (inactive)	> 100 µM (inactive)	> 100 µM (inactive)	> 100 µM (inactive)	> 100 µM (inactive)	> 100 µM (inactive)	56.9 µM (inactive)	> 100 µM (inactive)	–	–
C=C1C(=O)O[C@H]2C1C[C@@H](OC(C)=O)/C(C)=C/CC[C@@]1(C)O[C@H]21 (stereo partly drawn)	4.33 µM (inactive)	1.77 µM (inactive)	17.2 µM (inactive)	8.75 µM (inactive)	26.1 µM (inactive)	2.09 µM (inactive)	0.817 µM (active)	10.3 µM (inactive)	2.93 µM (inactive)	2 µM (inactive)	11 µM (inactive)	17.6 µM (inactive)	21.8 µM (inactive)	4.47 µM (inactive)	70.1 µM (inactive)	28.2 µM (inactive)	14.3 µM (inactive)	–
CC(C)(C)NC(=O)C12C3C4C1C1C2C3C41C(=O)NC(C)(C)C (stereo not drawn)	> 100 µM (inactive)	26.4 µM (inactive)	> 100 µM (inactive)	> 100 µM (inactive)	32.8 µM (inactive)	> 100 µM (inactive)	> 100 µM (inactive)	> 100 µM (inactive)	> 100 µM (inactive)	78.3 µM (inactive)	> 100 µM (inactive)	> 100 µM (inactive)	> 100 µM (inactive)	> 100 µM (inactive)	> 100 µM (inactive)	–	> 100 µM (inactive)	–
CSc1c(CC(=O)O)n(Cc2ccccc2)c2ccccc12	> 100 µM (inactive)	84.7 µM (inactive)	74.5 µM (inactive)	> 100 µM (inactive)	> 100 µM (inactive)	72.3 µM (inactive)	> 100 µM (inactive)	> 100 µM (inactive)	> 100 µM (inactive)	> 100 µM (inactive)	> 100 µM (inactive)	> 100 µM (inactive)	> 100 µM (inactive)	> 100 µM (inactive)	> 100 µM (inactive)	> 100 µM (inactive)	> 100 µM (inactive)	–
NS(=O)(=O)c1ccc(Nc2c3ccccc3nc3c(C(=O)NCCCN(CCO)CCO)cccc23)cc1	37.2 µM (inactive)	8.41 µM (inactive)	61.5 µM (inactive)	–	19.6 µM (inactive)	18.7 µM (inactive)	18.8 µM (inactive)	4.8 µM (inactive)	19.8 µM (inactive)	4.86 µM (inactive)	> 100 µM (inactive)	24.1 µM (inactive)	20.1 µM (inactive)	21.5 µM (inactive)	13.9 µM (inactive)	–	16.4 µM (inactive)	–
C=C(CO)[C@H]1Oc2ccc(C(C)=O)cc2[C@@H]1O	> 100 µM (inactive)	> 100 µM (inactive)	> 100 µM (inactive)	> 100 µM (inactive)	77.8 µM (inactive)	67.9 µM (inactive)	> 100 µM (inactive)	> 100 µM (inactive)	22.2 µM (inactive)	> 100 µM (inactive)	–	> 100 µM (inactive)	> 100 µM (inactive)	> 100 µM (inactive)	> 100 µM (inactive)	95.1 µM (inactive)	> 100 µM (inactive)	> 100 µM (inactive)
